This experiment deals with M. bovis BCG transmembrane potential (ΔΨ). Type of experiment: cell-based, Mycobacterium bovis BCG. The note with it: pH 7.2.

As to `N#CC(C#N)=NNc1cccc(Cl)c1` [CCCP, carbonyl cyanide m-chlorophenylhydrazone], the “DiOC2 red / green fluorescence ratio, M. bovis” value amounted to 0.086±0.003.

The record behind these values is paper PMC3567233 (Biochemistry, 2012).
